Reference: US10897891B2, “Compositions and methods for prolonged cell storage” (Board of Regents, The University of Texas System, priority 2015, dated 2021)

Test system: platelets
Assay: Platelet aggregation and shape after cold storage (microscopy, Experiment A)
Format: cell-based, human
Details: 2% final PEG-400, 5° C., 26 days, rotation 70 cycles per minute
Protocol: Photomicrographs were taken with a Nikon E400 microscope with an Insight 18.2 Color Camera and Spot 5.1 image capture software. No image adjustments were performed. Fluorescent microscopy was performed using a Leica DMIL photomicroscope and Leica LAS V3.8 image acquisition software. No post photographic image adjustments were made.
Platelets are known to change shape and show partial aggregation when chilled. The goal of the initial experiments was to see if this behavior changed when platelets were incubated in the presence of PEG-400. Two standard random donor platelet concentrates, type O, were mixed by connecting the bags, followed by gravity mixing 8 times. This mixture was equally divided by weight into the two original platelet bags and either 10 ml of PBS or 10 ml of PEG-400 in PBS was added to the control and test unit respectively. The final concentration of PEG-400 in the unit was 2%. These units were then gently rotated at 70 cycles per minute, with a 1 inch stroke length, at 5° C., over 26 days. At the end of this time aliquots were examined and photographed. • PBS Control 2% PEG-400 in PBS

Polyethylene glycol [PEG-400]
platelet aggregation and rod shapes vs PBS control: control was observed to be more aggregated and to have more rod shapes than the PEG test platelets
